# Source: publication PMC4187030, “Effect of cyclodextrin complexation on phenylpropanoids’ solubility and antioxidant activity” (Beilstein Journal of Organic Chemistry, 2014)
# Read-outs that look alike come from different tables or passages of the source.
# Columns and labels:
# [1] = Formation constants (Kf) by UV–visible spectral displacement method, α-CD; type: physicochemical; settings: UV–visible spectral displacement with MO (MO itself by direct titration), SD <10%
# Procedure: (§1) Formation constant (Kf) values were calculated using a UV–visible spectral displacement method. This method implies first the characterization of the inclusion complexes between CDs and the competitor (methyl orange, MO). The results are summarized in Table 1 in comparison with values from the literature.
# (§2) The UV–visible competition method with methyl orange (MO) as competitor was carried out according to the method described by Landy et al.. In order to calculate CD/PP Kf values, CD/MO inclusion complexes were firstly characterized by a direct titration method. Then, a spectral displacement method was applied by adding PP to a solution containing constant concentration of MO and CD. The addition of PP implied an absorbance increment leading to the calculation of CD/PP Kf values. Spectra were recorded between 520–530 nm for a MO concentration fixed at 0.1 mM. This wavelength range corresponds to the optimal spectral variation between the absorbance of free and complexed forms of MO. All Kf values were calculated by an algorithmic treatment applied to the first derivatives of UV spectra in order to avoid any spectral influence of diffraction phenomena. Absorption studies were performed using a UV–visible dual-beam spectrophotometer (Perkin Elmer Lambda 2S) with a 1 cm thick quartz cuvette.
# [2] = Formation constants (Kf) by UV–visible spectral displacement method, β-CD; type: physicochemical; settings: UV–visible spectral displacement with MO (MO itself by direct titration), SD <10%
# Procedure: as §1, §2
# [3] = Formation constants (Kf) by UV–visible spectral displacement method, HP-β-CD; type: physicochemical; settings: UV–visible spectral displacement with MO (MO itself by direct titration), SD <10%
# Procedure: as §1, §2
# [4] = Formation constants (Kf) by UV–visible spectral displacement method, RAMEB; type: physicochemical; settings: UV–visible spectral displacement with MO (MO itself by direct titration), SD <10%
# Procedure: as §1, §2
# [5] = Formation constants (Kf) by UV–visible spectral displacement method, CRYSMEB; type: physicochemical; settings: UV–visible spectral displacement with MO (MO itself by direct titration), SD <10%
# Procedure: as §1, §2
# [6] = Procedure: (§3) Phase solubility studies were carried out according to the method described by Higuchi and Connors. Excess amount of PP was added to 1 mL of CD solution at different concentrations ranging from 0 to 10 mM. The mixtures were shaken at 25 °C for 24 h then filtered through a 0.45 μm membrane filter. The concentration of PP in the filtrate was determined spectrophotometrically at the maximum wavelength corresponding to each PP. Phase solubility diagrams were obtained by plotting the solubility of PP as a function of CD concentration. Kf value of CD/PP inclusion complex was calculated from the linear segment of the phase–solubility diagrams using the following equation: […]
# (§4) where S0 is the intrinsic solubility of PP in the absence of CD and the Slope is the slope of the phase–solubility profile. The solubilizing potential of CD was evaluated by the complexation efficiency (CE) parameter. CE equal the complex to free CD concentration ratio and was calculated from the slope of the phase solubility diagram: […]
# (§5) where [CD/PP] is the concentration of dissolved inclusion complex and [CD] is the concentration of dissolved free CD. The CE can be used to calculate the PP:CD ratio as follows:
# (§6) The correlation between the CE and the molecular weight of CD or guest allowed the determination of the increase in formulation bulk which can be calculated using the following equation: […]
# (§7) where MWCD and MWPP are the molecular weight values of CD and PP, respectively.
# [7] = Phase solubility studies, β-CD
# Procedure: as §3, §4, §5, §6, §7
# [8] = Phase solubility studies, HP-β-CD
# Procedure: as §3, §4, §5, §6, §7
# [9] = Phase solubility studies, RAMEB; settings: for Increase in formulation bulk / CE (complexation efficiency) / Kf: RAMEB; for Increase in formulation bulk: from CE and molecular weights; for CE (complexation efficiency): from slope of phase solubility diagram; for Kf: from slope of phase solubility diagram and S0, 25 °C; for St/S0 (solubility enhancement ratio): guest solubility in 10 mM RAMEB solution vs water
# Procedure: as §3, §4, §5, §6, §7
# [10] = Phase solubility studies, CRYSMEB
# Procedure: as §3, §4, §5, §6, §7
# [11] = Intrinsic solubility (S0) of PP in water; type: physicochemical; settings: thermodynamic from solid, absence of CD, 25 °C
# Procedure: as §3, §4
# [12] = DPPH radical scavenging activity; settings: for Change of DPPH radical scavenging activity upon complexation with CDs: PP in 10 mM CD solution vs water; for Kinetic behavior of reaction with DPPH•: PP with ethanolic DPPH• solution; for DPPH radical scavenging (antioxidant) activity of PP alone: absence of CD, 1 h (3, 4, 6, 7) or 15 h (1, 2, 5), 25 °C
# Procedure: The 2,2-diphenyl-1-picrylhydrazyl (DPPH) radical scavenging activity of PP and their inclusion complexes was measured using the method described by Brand-Williams, Cuvelier, and Berset (1995) with some modifications. 1 mg of PP was dissolved in 50 mL of water, or 10 mM CD solution. 2 mL aliquot of the solution was vigorously mixed with 2 mL of ethanolic DPPH^• solution (0.1 mM). […]. Blank sample was prepared by mixing 2 mL of distilled water with 2 mL of DPPH^• solution. The scavenging activity was calculated using the following equation: […]
# where As and A0 are the absorbance of sample and blank sample, respectively.
# [13] = design: method as in earlier work; settings: cited from earlier work
# [14] = α-CD; ref 24; cited from earlier work
# [15] = β-CD, cited from earlier work
# [16] = HP-β-CD, cited from earlier work
# [17] = RAMEB, cited from earlier work
# [18] = CRYSMEB, cited from earlier work
smiles,measurement,setting,value
"O=C(O)/C=C/c1ccc(O)cc1 [p-Coumaric acid (5), p-coumaric acid]",Formation constant (Kf),[1],1816 M⁻¹
same,Formation constant (Kf),[2],338 M⁻¹
same,Formation constant (Kf),[3],787 M⁻¹
same,Formation constant (Kf),[4],1030 M⁻¹
same,Formation constant (Kf),[5],668 M⁻¹
same,CE (complexation efficiency),[6],4.17
same,Increase in formulation bulk,[6],7
same,Kf,[6],1988 M⁻¹
same,Molar ratio (PP:CD),[6],1:1.24
same,St/S0 (solubility enhancement ratio),[7]; guest solubility in 10 mM β-CD solution vs water,2.8
same,Increase in formulation bulk,"[7]; β-CD, from CE and molecular weights",18
same,CE (complexation efficiency),"[7]; β-CD, from slope of phase solubility diagram",0.64
same,Kf,"[7]; β-CD, from slope of phase solubility diagram and S0, 25 °C (linear portion for 1 and 2)",306 M⁻¹
same,Increase in formulation bulk,"[8]; HP-β-CD, from CE and molecular weights",13
same,CE (complexation efficiency),"[8]; HP-β-CD, from slope of phase solubility diagram",2.30
same,Kf,"[8]; HP-β-CD, from slope of phase solubility diagram and S0, 25 °C",1099 M⁻¹
same,St/S0 (solubility enhancement ratio),[8]; guest solubility in 10 mM HP-β-CD solution vs water,4.4
same,Increase in formulation bulk,[9],11
same,CE (complexation efficiency),[9],2.57
same,Kf,[9],1228 M⁻¹
same,St/S0 (solubility enhancement ratio),[9],4.4
same,Increase in formulation bulk,"[10]; CRYSMEB, from CE and molecular weights",11
same,CE (complexation efficiency),"[10]; CRYSMEB, from slope of phase solubility diagram",1.89
same,Kf,"[10]; CRYSMEB, from slope of phase solubility diagram and S0, 25 °C",900 M⁻¹
same,St/S0 (solubility enhancement ratio),[10]; guest solubility in 10 mM CRYSMEB solution vs water,4
same,solubility at 24 h,[11],344 µg/mL
same,Change of DPPH radical scavenging activity upon complexation with CDs,[12],kept unchanged
same,Kinetic behavior of reaction with DPPH•,[12],slow kinetic behavior
same,DPPH radical scavenging (antioxidant) activity of PP alone,[12],higher antioxidant activity
same,log P,[13],1.43
"C=CCc1ccc(O)c(OC)c1 [Eugenol (4), eugenol]",Formation constant (Kf),[1],350 M⁻¹
same,Formation constant (Kf),[3],436 M⁻¹
same,CE (complexation efficiency),[6],1.56
same,Increase in formulation bulk,[6],10
same,Kf,[6],246 M⁻¹
same,Molar ratio (PP:CD),[6],1:1.64
same,CE (complexation efficiency),[7],3.25
same,Increase in formulation bulk,[7],9
same,Kf,[7],513 M⁻¹
same,Molar ratio (PP:CD),[7],1:1.31
same,CE (complexation efficiency),[8],2.81
same,Increase in formulation bulk,[8],12
same,Kf,[8],445 M⁻¹
same,Molar ratio (PP:CD),[8],1:1.36
same,Increase in formulation bulk,[9],11
same,CE (complexation efficiency),[9],3.48
same,Kf,[9],550 M⁻¹
same,St/S0 (solubility enhancement ratio),[9],2.2
same,CE (complexation efficiency),[10],2.78
same,Increase in formulation bulk,[10],10
same,Kf,[10],440 M⁻¹
same,Molar ratio (PP:CD),[10],1:1.36
same,solubility at 24 h,[11],1040 µg/mL
same,Change of DPPH radical scavenging activity upon complexation with CDs,[12],kept unchanged
same,Kinetic behavior of reaction with DPPH•,[12],reacted rapidly
same,DPPH radical scavenging (antioxidant) activity of PP alone,[12],higher antioxidant activity
same,Formation constant (Kf),[14],94 M⁻¹
same,Formation constant (Kf),[15]; ref 21,322 M⁻¹
same,Formation constant (Kf),[15]; ref 24,264 M⁻¹
same,Formation constant (Kf),[15]; ref 25,357 M⁻¹
same,Formation constant (Kf),[16]; ref 21,445 M⁻¹
same,Formation constant (Kf),[16]; ref 24,462 M⁻¹
same,Formation constant (Kf),[17]; ref 21,521 M⁻¹
same,Formation constant (Kf),[17]; ref 24,568 M⁻¹
same,Formation constant (Kf),[18]; ref 21,401 M⁻¹
same,Formation constant (Kf),[18]; ref 24,454 M⁻¹
same,log P,[13],2.100
